Measurements reported in patent US20250221966A1, “RXFP1 AGONISTS” (BRISTOL-MYERS SQUIBB COMPANY, priority 2021, published 2025).

molecular target: T1, human RXFP1 (Homo sapiens, UniProt Q9HBX9); experiment: RXFP1 cAMP assay (hRXFP1 HEK293 cAMP assay, HTRF); type: cell-based; settings: HEK293 cells stably expressing human RXFP1, 30 min at room temperature, read-out: cAMP hRXFP1 HEK293 Assay EC50
T1 construct: expressed in transfected cells
T1 sequence (Q9HBX9 1-757): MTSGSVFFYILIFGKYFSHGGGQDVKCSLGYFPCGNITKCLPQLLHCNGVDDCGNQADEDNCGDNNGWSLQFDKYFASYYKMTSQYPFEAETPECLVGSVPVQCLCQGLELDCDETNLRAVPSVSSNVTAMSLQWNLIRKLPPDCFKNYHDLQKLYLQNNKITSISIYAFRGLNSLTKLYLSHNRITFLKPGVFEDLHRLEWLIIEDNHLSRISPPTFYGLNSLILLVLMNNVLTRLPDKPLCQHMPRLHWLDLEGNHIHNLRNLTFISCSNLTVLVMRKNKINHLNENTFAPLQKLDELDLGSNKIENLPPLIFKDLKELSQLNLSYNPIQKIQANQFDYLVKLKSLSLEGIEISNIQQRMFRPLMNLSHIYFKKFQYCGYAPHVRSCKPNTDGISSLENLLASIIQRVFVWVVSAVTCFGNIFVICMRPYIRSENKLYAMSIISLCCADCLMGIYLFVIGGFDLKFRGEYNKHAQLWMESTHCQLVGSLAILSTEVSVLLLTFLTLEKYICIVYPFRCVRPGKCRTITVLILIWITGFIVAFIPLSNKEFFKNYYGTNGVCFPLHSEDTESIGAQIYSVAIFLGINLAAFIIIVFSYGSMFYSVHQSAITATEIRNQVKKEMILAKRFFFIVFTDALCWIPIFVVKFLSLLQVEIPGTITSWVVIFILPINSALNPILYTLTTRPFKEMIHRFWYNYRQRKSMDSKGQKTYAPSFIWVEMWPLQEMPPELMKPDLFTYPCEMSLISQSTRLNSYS
Outline: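 HEK293 cells stably expressing human RXFP1 were suspended in HBSS (Ca/Mg) with 20 mM HEPES, 0.05% BSA and 0.5 mM IBMX, then treated with compounds (0.010 nM–50 μM, 2% DMSO final) for 30 min at room temperature. Intracellular cAMP was measured by HTRF, and potency was derived from 4-parameter logistic fits.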

First: COc1cc(F)c(F)cc1C(=O)N[C@@H]1C2CCC(/C2=C/C(=O)OCc2ccccc2)[C@@H]1C(=O)Nc1ccc(F)c(C(F)(F)F)c1 (stereo partly shown) [compound 9]
Second: COc1cc(F)c(F)cc1C(=O)N[C@@H]1C2CCC(/C2=C/c2ccc3ccccc3c2)[C@@H]1C(=O)Nc1ccc(F)c(C(F)(F)F)c1 (stereo partly shown) [compound 18]
The EC50 of the first is 2-fold lower: 0.31 µM for the first, 0.63 µM for the second. The first is the more potent here.

Compared with `COc1ccc(-c2cc(C(OC(=O)NC3CC3)C(F)(F)F)ccc2F)cc1C(=O)N[C@@H]1C2CCC(/C2=C/C2CC2)[C@@H]1C(=O)Nc1ccc(F)c(C(F)(F)F)c1` (stereo partly shown) [compound 208], `COc1ccc(-c2cc(C(C)O)ccc2F)cc1C(=O)N[C@@H]1C2CCC(/C2=C/C2CC2)[C@@H]1C(=O)Nc1ccc(F)c(C(F)(F)F)c1` (stereo partly shown) [compound 248] is 4-fold higher in EC50: 0.001 µM for the first, 0.004 µM for the second. The first is the more potent here.

`COc1ccc(C2=NOC3COCC23)cc1C(=O)N[C@H]1[C@@H](C(=O)NC2CCC(C(F)(F)F)C2)[C@H]2CC[C@@H]1/C2=C\C1CC1` (single isomer, unassigned) [Example 629] and `COc1ccc(C2=NOC3COCC23)cc1C(=O)N[C@H]1[C@@H](C(=O)NC2CCC2)[C@H]2CC[C@@H]1/C2=C\C1CC1` (stereo partly shown) [compound 635] are within 1.5-fold of each other in EC50: 0.18 µM for the first, 0.191 µM for the second.

Compared with `COc1ccc(C2=NOC(C3(O)CC3)C2)cc1C(=O)N[C@H]1[C@@H](C(=O)NCC(C)(C)C)[C@H]2CC[C@@H]1/C2=C\C1CC1` (stereo partly shown) [compound 618], `COc1ccc(C2=NOC3COCC23)cc1C(=O)N[C@H]1[C@@H](C(=O)NC2(C(C)C)CC2)[C@H]2CC[C@@H]1/C2=C\C1CC1` (stereo partly shown) [compound 584] is 2-fold lower in EC50: 0.155 µM for the first, 0.0773 µM for the second. The second is the more potent here.

Compared with `COc1ccc(C2=NO[C@H]3[C@@H]2[C@@H](O)C[C@H]3O)cc1C(=O)N[C@H]1[C@@H](C(=O)Nc2ccc(F)c(C(F)(F)F)c2)[C@H]2CC[C@@H]1/C2=C\C1CC1` (single isomer, unassigned) [compound 539], `COc1ccc(C2=NOC3CC(CO)CC23)cc1C(=O)N[C@@H]1C2CCC(/C2=C/C2CC2)[C@@H]1C(=O)Nc1ccc(F)c(C(F)(F)F)c1` (single isomer, unassigned) [Example 430] is 6.6-fold higher in EC50: 0.0293 µM for the first, 0.194 µM for the second. The first is the more potent here.

Compared with `COc1ccc(C2=NOC3CNCC23)cc1C(=O)N[C@H]1[C@@H](C(=O)Nc2ccc(F)c(C(F)(F)F)c2)[C@H]2CC[C@@H]1/C2=C\C1CC1` (stereo partly drawn) [Example 437, (1R,2S,3R,4R,Z)-7-(cyclopropylmethylene)-N-(4-fluoro-3-(trifluoromethyl)phenyl)-3-(2-methoxy-5-(3a,5,6,6a-tetrahydro-4H-pyrrolo[3,4-d]isoxazol-3-yl)benzamido)bicyclo[2.2.1]heptane-2-carboxamide], `COc1ccc(C2=NOC3CC(C)(CO)CC23)cc1C(=O)N[C@H]1[C@@H](C(=O)Nc2ccc(F)c(C(F)(F)F)c2)[C@H]2CC[C@@H]1/C2=C\C1CC1` (stereo partly shown) [compound 736] is 13-fold lower in EC50: 0.031 µM for the first, 0.0024 µM for the second.

Compared with `COCCN1CCCC1c1ccc(OC)c(C(=O)N[C@@H]2C3CCC(C3=CC3CC3)[C@@H]2C(=O)Nc2ccc(F)c(C(F)(F)F)c2)c1` (stereo partly shown) [compound 689], `COc1ccc(C2=NOC(CC(=O)O)C2)cc1C(=O)N[C@@H]1C2CCC(/C2=C/C2CC2)[C@@H]1C(=O)Nc1ccc(F)c(C(F)(F)F)c1` (single isomer, unassigned) [Example 390] is 18-fold lower in EC50: 0.684 µM for the first, 0.037 µM for the second.

Compared with `COc1cc(F)c(F)cc1C(=O)N[C@@H]1C2CCC(/C2=C/c2cncnc2)[C@@H]1C(=O)Nc1ccc(F)c(C(F)(F)F)c1` (stereo partly shown) [compound 63], `COc1cc(F)c(F)cc1C(=O)N[C@@H]1C2CCC(/C2=C/c2cccc(Oc3ccccc3)c2)[C@@H]1C(=O)Nc1ccc(F)c(C(F)(F)F)c1` (stereo partly shown) [compound 46] is 4.2-fold lower in EC50: 0.51 µM for the first, 0.12 µM for the second. The second is the more potent here.

Compared with `COc1ccc(C2=NOC3CC(C(O)C(F)(F)F)CC23)cc1C(=O)N[C@H]1[C@@H](C(=O)Nc2ccc(F)c(C(F)(F)F)c2)[C@H]2CC[C@@H]1/C2=C\C1CC1` (stereo partly shown) [compound 856], `COc1ccc(-c2cc(S(C)(=O)=O)ccc2F)cc1C(=O)N[C@H]1[C@@H](C(=O)Nc2ccc(F)c(C(F)(F)F)c2)[C@H]2CC[C@@H]1/C2=C\C1CC1` [compound 899] is 1.6-fold lower in EC50: 0.0047 µM for the first, 0.003 µM for the second.

Compound `COc1ccccc1CNC(=O)[C@@H]1[C@H](NC(=O)c2cc(C3=NOC4COCC34)ccc2OC)[C@@H]2CC[C@H]1/C2=C/C1CC1` (stereo partly shown) [compound 681] has an EC50 of 0.606 µM.
